Here are results for two molecules from patent US12611475B2, “System for implantation by sterilisation techniques” (Universidade de Santiago de Compostela, priority 2020, dated 2026).

In series [1] the test system is Bacillus pumilus spores (ATCC 27142). As to conditions: 150 ppm H2O2, CO2 39° C., 100 bar, continuous flow 10 g/min, 15 minutes; 10^6 spores.
Procedure: Mask cutouts (4 cm 2) were inoculated with 10^6 spores contained in 100 μL of aqueous solution. The samples were placed inside sterilization bags and heat-sealed to be placed in a 600 mL stainless steel autoclave (Novagenesis, Novasterilis Inc.) provided with lower mechanical agitation. H2O2 was added as an additive at the bottom of the autoclave to avoid direct contact with the masks at a content of 150 ppm. The system is heated to 39° C. and pressurized with a CO2 flow to reach 100 bar. A continuous flow of CO2 of 0 to 10 g/min through the autoclave was maintained for a period of 15 minutes. Subsequently, the system is depressurized to reach atmospheric pressure at a rate of 14.3 bar/min.
The effectiveness of the sterilization method was evaluated by sowing tryptone-soybean agar culture medium and subsequent counting of formed colonies.
A short description of series [2]: X-ray diffraction and infrared spectrum after treatment. The format is physicochemical. The conditions noted are these: 1200 ppm hydrogen peroxide, supercritical CO2 39° C., 140 bar, 2.5 and 2.5 hours; versus untreated. On the procedure: FIG. 4. X-ray diffraction spectrum (A) and infrared spectrum (B) of vancomycin hydrochloride i) untreated and (ii) after addition of 1200 ppm hydrogen peroxide and processing with supercritical CO2 at 39° C., 140 bar during batch stages and continuous compressed CO2 flux for 2.5 and 2.5 hours, respectively. Caption: vancomycin untreated hydrochloride (black), vancomycin treated hydrochloride (gray)

Each structure is given as a SMILES string. Where a name gives a salt, the structure may show the parent alone.

Regarding `OO` [Test H2O2, hydrogen peroxide], the “sterility level reached on FFP3 mask cutouts” value in series [1] was “SAL-6”.
On to `CN[C@H](CC(C)C)C(=O)N[C@H]1C(=O)N[C@@H](CC(N)=O)C(=O)N[C@H]2C(=O)N[C@H]3C(=O)N[C@H](C(=O)N[C@H](C(=O)O)c4cc(O)cc(O)c4-c4cc3ccc4O)[C@H](O)c3ccc(c(Cl)c3)Oc3cc2cc(c3O[C@@H]2O[C@H](CO)[C@@H](O)[C@H](O)[C@H]2O[C@H]2C[C@](C)(N)[C@H](O)[C@H](C)O2)Oc2ccc(cc2Cl)[C@H]1O` [Vancomycin hydrochloride, vancomycin hydrochloride], for which the “crystalline form after treatment” value in series [2] was “not altered”.
